In patent publication US8217176B2, “Fused heterocyclic derivative and use thereof” (Takeda Pharmaceutical Company Limited, priority 2008, dated 2012) one finds inhibition and IC50 data, which are given here for 19 molecules.

This assay deals with NIH-3T3/Gli reporter cells. The assay can be described thus: Evaluation of compound: Shh-N-induced luciferase activity in NIH-3T3/Gli reporter cells (Smo inhibitory action). The assay is classed as cell-based. The settings on record: 48 hr; for inhibition at 1 µM: NIH3T3, 1 μM compound, mouse Shh-N end fragment supernatant, read-out: inhibition rate (%) at 1 μM; for IC50: NIH3T3, mouse Shh-N end fragment supernatant, read-out: IC50 value (compound concentration necessary for achieving 50% of the maximum value of inhibition rate). On the procedure: HEK293 cells were grown in D-MEM medium (Invitrogen) containing 10% fetal bovine serum in a 10 cm dish and pcDNA3.1/mShh-N was introduced into the cells using FuGENE6 (Roche Applied Science). Thereafter, the HEK293 cells were cultured in a carbon dioxide gas incubator at 37° C. for 24 hours, and the medium was exchanged with D-MEM medium (Invitrogen) containing 2% fetal bovine serum. After culturing for 48 hr, a culture supernatant containing recombinant type mouse Shh-N end fragment was obtained by filtration using a filter ([…]).
Using D-MEM (Invitrogen) containing 10% fetal bovine serum, expression plasmid pcDNA3.1 and Gli reporter plasmid (pGL3/δ-cry promoter, 8×Gli binding site) produced by the method of Experimental Example 1 were introduced into NIH-3T3 cells grown in a 10 cm dish by the use of FuGENE6 (Roche Applied Science).
After culture for 24 hr, the cells were recovered, suspended in D-MEM medium containing 10% fetal bovine serum and supplemented with Geneticin (Life Technologies Oriental, Inc.) to a final concentration of 500 μg/ml, diluted to 10^4 cells/ml, plated on a 96 well plate, and cultured in a carbon dioxide gas incubator at 37° C. to give Geneticin resistant transformed cell line.
The obtained transformed cell line was cultured in a 96 well plate, mouse Shh-N end fragment obtained in Experimental Example 3 was added, and NIH-3T3/Gli reporter cell, which is a cell line capable of induction of luciferase expression, was selected.
NIH-3T3/Gli reporter cells cultured in D-MEM (Invitrogen) containing 10% fetal bovine serum were plated in a 96 well white plate at 1×10^4 cells/well, and cultured overnight in a carbon dioxide gas incubator at 37° C. The medium was removed, a compound (50 μl) and culture supernatant of mouse Shh-N end fragment-expressing HEK293 (D-MEM medium containing 2% fetal bovine serum, 50 μl) were added, and the cells were cultured for 48 hr in a carbon dioxide gas incubator at 37° C. Bright-Glo (Promega, 50 μl) was added, and the mixture was stirred, after which luciferase activity was measured by EnVision (PerkinElmer). The inhibition rate was calculated based on the luciferase activity of the control without addition of the compound as 100. The concentration of the compound and the inhibition rate were analyzed by PRISM3.00 (software of GraphPad), based on which the IC50 value (compound concentration necessary for achieving 50% of the maximum value of inhibition rate) of the compound was calculated.

Counter-ions that a name gives are not always drawn.

A word on the inhibition: it is the relative decrease from the control value, in per cent.

`CCN(CC)CCN(C)C(=O)c1sc2c(c1OC)c(=O)n(Cc1ccc(OC)cc1)c1ccccc21` [Example 48, N-[2-(diethylamino)ethyl]-3-methoxy-5-(4-methoxybenzyl)-N-methyl-4-oxo-4,5-dihydrothieno[3,2-c] quinoline-2-carboxamide hydrochloride]: the inhibition at 1 µM stood at 10% and the IC50 is at most 1000 nM.

In the case of `COc1c(C(=O)N[C@H]2CC[C@H](O)CC2)n(C)c2c1c(=O)n(CC(=O)c1ccccc1)c1ccccc21` [Example 118, N-(trans-4-hydroxycyclohexyl)-3-methoxy-1-methyl-4-oxo-5-(2-oxo-2-phenylethyl)-4,5-dihydro-1H-pyrrolo[3,2-c]quinoline-2-carboxamide], the inhibition at 1 µM came to 100%.

`CCc1cc2c(c(OCCF)c(C(=O)NC3CCN(C(=O)CO)CC3)n2C)c(=O)n1CC(=O)c1ccccc1` [Example 142, 6-ethyl-3-(2-fluoroethoxy)-N-[1-(hydroxyacetyl)piperidin-4-yl]-1-methyl-4-oxo-5-(2-oxo-2-phenylethyl)-4,5-dihydro-1H-pyrrolo[3,2-c]pyridine-2-carboxamide]: the inhibition at 1 µM was 100%.

`CCc1cc2c(c(OCC(F)(F)F)c(C(=O)NC3CCN(C(=O)CO)CC3)n2C)c(=O)n1Cc1ccccc1` [Example 654, 5-benzyl-6-ethyl-N-[1-(hydroxyacetyl)piperidin-4-yl]-1-methyl-4-oxo-3-(2,2,2-trifluoroethoxy)-4,5-dihydro-1H-pyrrolo[3,2-c]pyridine-2-carboxamide]: the inhibition at 1 µM turned out to be 100%.

With `CCN(CC)CCN(C)C(=O)c1sc2c(c1OC)c(=O)n(Cc1ccccn1)c1ccccc21` [Example 3, N-[2-(diethylamino)ethyl]-3-methoxy-N-methyl-4-oxo-5-(pyridin-2-ylmethyl)-4,5-dihydrothieno[3,2-c]quinoline-2-carboxamide ditrifluoroacetate], the inhibition at 1 µM worked out at 100% and the IC50 was at most 1000 nM.

As for `CCOc1c(C(=O)NC2CCN(CCO)CC2)n(C)c2cc(C)n(CC(=O)c3ccccc3)c(=O)c12` [Example 138, 3-ethoxy-N-[1-(2-hydroxyethyl)piperidin-4-yl]-1,6-dimethyl-4-oxo-5-(2-oxo-2-phenylethyl)-4,5-dihydro-1H-pyrrolo[3,2-c]pyridine-2-carboxamide], the inhibition at 1 µM came to 100%.

With `COc1c(C(=O)NC2CCN(C(=O)CO)CC2)n(C)c2c1c(=O)n(CC(=O)c1ccccc1)c1ccc(F)cc21` [Example 584, 8-fluoro-N-[1-(hydroxyacetyl)piperidin-4-yl]-3-methoxy-1-methyl-4-oxo-5-(2-oxo-2-phenylethyl)-4,5-dihydro-1H-pyrrolo[3,2-c]quinoline-2-carboxamide], the inhibition at 1 µM came to 100%.

In the case of `COc1c(C(=O)NCCO)sc2c1c(=O)n(CC(=O)c1ccccc1)c1ccccc21` [Example 32, N-(2-hydroxyethyl)-3-methoxy-4-oxo-5-(2-oxo-2-phenylethyl)-4,5-dihydrothieno[3,2-c]quinoline-2-carboxamide], the inhibition at 1 µM was 95% and the IC50 is at most 1000 nM.

In the case of `COc1c(C(=O)NCCN2CCC(O)CC2)n(C)c2c1c(=O)n(CC(=O)c1ccccc1)c1ccccc21` [Example 69, N-[2-(4-hydroxypiperidin-1-yl)ethyl]-3-methoxy-1-methyl-4-oxo-5-(2-oxo-2-phenylethyl)-4,5-dihydro-1H-pyrrolo[3,2-c]quinoline-2-carboxamide], the inhibition at 1 µM was determined as 100% and the IC50 is at most 1000 nM.

With `COc1c(C(=O)N2CCCN(C)CC2)sc2c1c(=O)n(CC(=O)c1ccccc1)c1ccccc21` [Example 17, 3-methoxy-2-[(4-methyl-1,4-diazepan-1-yl)carbonyl]-5-(2-oxo-2-phenylethyl)thieno[3,2-c]quinolin-4(5H)-one trifluoroacetate], the inhibition at 1 µM was found to be 99% and the IC50 is at most 1000 nM.

Regarding `COc1c(C(=O)NCC2CCCCN2)sc2c1c(=O)n(CC(=O)c1ccccc1)c1ccccc21` (stereo not drawn) [Example 74, 3-methoxy-4-oxo-5-(2-oxo-2-phenylethyl)-N-(piperidin-2-ylmethyl)-4,5-dihydrothieno[3,2-c]quinoline-2-carboxamide hydrochloride], the inhibition at 1 µM came to 100% and the IC50 was at most 1000 nM.

Turning to `CCc1cc2c(c(OC(C)C)c(C(=O)NC3CCN(C(=O)CO)CC3)n2C)c(=O)n1CC(=O)c1ccccc1` [Example 522, 6-ethyl-N-[1-(hydroxyacetyl)piperidin-4-yl]-1-methyl-3-(1-methylethoxy)-4-oxo-5-(2-oxo-2-phenylethyl)-4,5-dihydro-1H-pyrrolo[3,2-c]pyridine-2-carboxamide], the inhibition at 1 µM was 100%.

With `CCOc1c(C(=O)NCCN2CCCC2)sc2c1c(=O)n(CC(=O)c1ccccc1)c1ccccc21` [Example 43, 3-ethoxy-4-oxo-5-(2-oxo-2-phenylethyl)-N-(2-pyrrolidin-1-ylethyl)-4,5-dihydrothieno[3,2-c]quinoline-2-carboxamide], the inhibition at 1 µM was 100% and the IC50 is at most 1000 nM.

As for `CCN(CC)CCN(C)C(=O)c1sc2c(c1OC)c(=O)n(CCOc1ccccc1)c1ccccc21` [Example 51, N-[2-(diethylamino)ethyl]-3-methoxy-N-methyl-4-oxo-5-(2-phenoxyethyl)-4,5-dihydrothieno[3,2-c]quinoline-2-carboxamide], the inhibition at 1 µM is 100% and the IC50 was at most 1000 nM.

Consider `CCc1cc2c(c(OCC(F)(F)F)c(C(=O)NC3CCN(C(=O)CO)CC3)n2C)c(=O)n1CCc1ccccc1` [Example 661, 6-ethyl-N-[1-(hydroxyacetyl)piperidin-4-yl]-1-methyl-4-oxo-5-(2-phenylethyl)-3-(2,2,2-trifluoroethoxy)-4,5-dihydro-1H-pyrrolo[3,2-c]pyridine-2-carboxamide], for which the inhibition at 1 µM was 100%.

As to `CCc1cc2c(c(OCC(F)(F)F)c(C(=O)NC3CCN(C(=O)CO)CC3)n2C)c(=O)n1Cc1ccccc1Cl` [Example 660, 5-(2-chlorobenzyl)-6-ethyl-N-[1-(hydroxyacetyl)piperidin-4-yl]-1-methyl-4-oxo-3-(2,2,2-trifluoroethoxy)-4,5-dihydro-1H-pyrrolo[3,2-c]pyridine-2-carboxamide], the inhibition at 1 µM was determined as 100%.

As to `CCOc1c(C(=O)NC2CCN(C(=O)CO)CC2)n(C)c2cc(C)n(CC(=O)c3ccccc3)c(=O)c12` [Example 136, 3-ethoxy-N-[1-(hydroxyacetyl)piperidin-4-yl]-1,6-dimethyl-4-oxo-5-(2-oxo-2-phenylethyl)-4,5-dihydro-1H-pyrrolo[3,2-c]pyridine-2-carboxamide], the inhibition at 1 µM amounted to 100%.

With `COc1c(C(=O)NC2CCN(c3ccncc3)CC2)n(C)c2cc(C)n(CC(=O)c3ccccc3)c(=O)c12` [Example 135, 3-methoxy-1,6-dimethyl-4-oxo-5-(2-oxo-2-phenylethyl)-N-(1-pyridin-4-ylpiperidin-4-yl)-4,5-dihydro-1H-pyrrolo[3,2-c]pyridine-2-carboxamide], the inhibition at 1 µM amounted to 100%.

For the molecule `COc1c(C(=O)NC2CCN(C(=O)CO)CC2)sc2c1c(=O)n(CC(=O)c1ccccc1)c1ccc(F)cc21` [Example 562, 8-fluoro-N-[1-(hydroxyacetyl)piperidin-4-yl]-3-methoxy-4-oxo-5-(2-oxo-2-phenylethyl)-4,5-dihydrothieno[3,2-c]quinoline-2-carboxamide], the inhibition at 1 µM came to 100%.
